The source of these data is PMC10509173, “Deep learning driven de novo drug design based on gastric proton pump structures” (Communications Biology, 2023).

Values joined by “and” are separate entries in the source; they are usually repeats but may differ in a detail not shown here. Equal entries are not always repeated. Where two headings read alike, the source gives them in different places.

The IC50 is the concentration needed to halve the response being measured. The term Ki denotes a measure of affinity in units of concentration, obtained from inhibition or displacement.

The subject of test [1] is H+,K+-ATPase. More on the design: method as in PMID 35604136, PMID 28747707. The conditions noted are these: cited from earlier work.
The target of test [2] is T1, H+,K+-ATPase (Sus scrofa, UniProt P19156). The test is described as follows: Dose-dependent inhibition of H+,K+-ATPase activity, membrane fractions. The conditions noted are these: for H+,K+-ATPase activity, raw data of dose-dependent inhibition: single replicate values.
T1 sequence (P19156 2-1034 limits assumed): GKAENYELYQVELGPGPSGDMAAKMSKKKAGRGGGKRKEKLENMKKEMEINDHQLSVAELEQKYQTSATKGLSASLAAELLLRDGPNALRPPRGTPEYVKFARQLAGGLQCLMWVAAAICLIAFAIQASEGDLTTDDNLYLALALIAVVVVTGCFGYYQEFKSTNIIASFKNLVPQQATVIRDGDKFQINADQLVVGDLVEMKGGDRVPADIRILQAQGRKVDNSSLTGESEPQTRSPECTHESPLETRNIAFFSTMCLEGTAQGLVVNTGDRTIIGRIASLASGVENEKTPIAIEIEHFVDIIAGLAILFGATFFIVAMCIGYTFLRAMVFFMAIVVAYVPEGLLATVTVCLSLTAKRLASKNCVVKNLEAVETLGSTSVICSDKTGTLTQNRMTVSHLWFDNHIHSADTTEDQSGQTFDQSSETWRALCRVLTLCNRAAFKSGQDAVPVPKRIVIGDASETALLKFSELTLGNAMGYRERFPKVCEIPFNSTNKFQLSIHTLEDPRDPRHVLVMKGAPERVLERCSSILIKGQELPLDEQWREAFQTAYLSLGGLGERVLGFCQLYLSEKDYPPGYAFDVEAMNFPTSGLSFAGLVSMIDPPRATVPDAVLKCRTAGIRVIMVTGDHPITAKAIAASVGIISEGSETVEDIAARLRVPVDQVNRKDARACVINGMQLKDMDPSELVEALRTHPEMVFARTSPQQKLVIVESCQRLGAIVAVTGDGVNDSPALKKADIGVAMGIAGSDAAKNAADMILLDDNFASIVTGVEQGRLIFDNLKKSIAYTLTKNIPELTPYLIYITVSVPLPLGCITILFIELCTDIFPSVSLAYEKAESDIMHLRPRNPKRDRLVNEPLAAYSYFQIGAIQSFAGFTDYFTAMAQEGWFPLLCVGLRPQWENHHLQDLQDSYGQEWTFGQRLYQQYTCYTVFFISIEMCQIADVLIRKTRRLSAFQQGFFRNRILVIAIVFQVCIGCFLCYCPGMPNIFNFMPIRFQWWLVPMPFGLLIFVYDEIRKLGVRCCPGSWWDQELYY
T1 sequence (P18434 whole entry partner): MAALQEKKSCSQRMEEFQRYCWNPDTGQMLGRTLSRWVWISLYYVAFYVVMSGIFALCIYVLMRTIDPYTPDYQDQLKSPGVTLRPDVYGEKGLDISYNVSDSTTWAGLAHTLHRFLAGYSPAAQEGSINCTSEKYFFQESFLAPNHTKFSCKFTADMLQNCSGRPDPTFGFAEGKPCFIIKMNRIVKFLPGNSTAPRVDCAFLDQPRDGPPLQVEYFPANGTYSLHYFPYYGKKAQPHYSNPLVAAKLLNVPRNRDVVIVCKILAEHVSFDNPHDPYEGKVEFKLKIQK
Test [3] addresses T1, H+,K+-ATPase. The test is described as follows: K+-dependent ATPase assay, double reciprocal plot and Ki estimation. The format is biochemical, pig. On the set-up: H^+,K^+-ATPase-enriched membrane fractions were purified from pig stomach; from tissue; host or cells: pig stomach (gastric membrane fractions); reciprocal K+-stimulated ATPase activity, Lineweaver-Burk raw data: unit not given here. The conditions noted are these: for reciprocal K+-stimulated ATPase activity, Lineweaver-Burk raw data: replicate values. From the text:
Data measured from 96-well plate contained triplicates of four different sets of K^+-dependent ATPase assays in the absence or presence of three different concentrations of synthesized compounds. Data were corrected for background values in the absence of K^+ at each compound concentration, and plot them against the double reciprocal axes in Supplementary Fig. 5. Data were also fitted by using simultaneous nonlinear regression as described previously to estimate their Ki values.

Test [4] has as its target H+,K+-ATPase. More on the design: method as in PMID 2837231. The conditions noted are these: cited from earlier work.

As for `Cc1nc2c3c(ccn2c1C)[C@@H](O)[C@H](O)[C@@H](c1ccccc1)N3` [BYK99], in test [1], the “times higher apparent affinity than SCH28080” value is listed as “more than 25 times”.
`COCCO[C@@H]1c2ccn3c(C)c(C)nc3c2N[C@H](c2ccccc2)[C@H]1O` [soraprazan]: the “times higher apparent affinity than SCH28080” value in test [1] is listed as more than 7 times.
`CNCc1ccc(OCc2ccccc2OCc2ccccc2)cc1` [DQ-06] came in with an IC50 in test [2] of 700 ± 40 nM. The “H+,K+-ATPase activity, raw data of dose-dependent inhibition” value is 0.01 and -0.01 and 0.22 and -0.22 and -0.74 and -0.4 in test [2] ([PCAB] -3.30103 (log, unit not given)); 1.74 and 1.71 and 2.79 and 2.38 and 1.76 and 2.41 in test [2] ([PCAB] -3.52288 (log, unit not given)); 5.02 and 5.03 and 3.19 and 3.1 and 2.85 and 2.51 in test [2] ([PCAB] -4 (log, unit not given)); 5.51 and 5.6 (2×) and 5.65 and 5.75 and 5.83 in test [2] ([PCAB] -4.30103 (log, unit not given)); 5.58 and 6.16 and 6.26 and 6.39 and 7.23 and 7.48 in test [2] ([PCAB] -4.52288 (log, unit not given)); 9.37 and 9.6 and 11.28 and 10.91 and 10.15 and 11.11 in test [2] ([PCAB] -5 (log, unit not given)). Moreover, the “H+,K+-ATPase activity, raw data of dose-dependent inhibition” value in test [2] ([PCAB] -5.52288 (log, unit not given)) is 20.15 and 21.1 and 19.71 and 21.04 and 20.73 and 20.63; in test [2] ([PCAB] -6 (log, unit not given)) it was 39.09 and 39.39 and 38.28 and 36.79 and 38.33 and 39.14; in test [2] ([PCAB] -6.30103 (log, unit not given)), 57.6 and 58.17 and 57.79 and 57.15 and 58.12 and 57.53; in test [2] ([PCAB] -7 (log, unit not given)) it was 90.69 and 91.88 and 87.97 and 84.74 and 90.82 and 88.26; in test [2] ([PCAB] -8 (log, unit not given)), 101.14 and 100.91 and 95.09 and 94.94 and 96.97 and 96.94; in test [2] ([PCAB] -11 (log, unit not given; possibly placeholder for no compound)), 102.84 and 103.26 and 99.81 and 97.12 and 97.38 and 101.76. Besides, in test [3] (K+-competitive inhibition, read-out: Ki), the Ki was 93.8 nM. In addition, the “reciprocal K+-stimulated ATPase activity, Lineweaver-Burk raw data” value (shortened to “reciprocal K+-stimulated ATPase activity”) in test [3] (compound concentration 50, 1/KCl 0.05 (units not given)) is 0.0059 and 0.0057 and 0.006; in test [3] (compound concentration 50, 1/KCl 0.1 (units not given)) it was 0.0075 and 0.0077 and 0.0078; in test [3] (compound concentration 50, 1/KCl 0.125 (units not given)), 0.0067 and 0.0066 and 0.007; in test [3] (compound concentration 50, 1/KCl 0.2 (units not given)), 0.0088 and 0.0086 and 0.0089; in test [3] (compound concentration 50, 1/KCl 0.5 (units not given)), 0.0111 and 0.011 and 0.0112; in test [3] (compound concentration 50, 1/KCl 1 (units not given)) it was 0.0282 and 0.0275 and 0.0291. Also, the “reciprocal K+-stimulated ATPase activity” value in test [3] (compound concentration 50, 1/KCl 2 (units not given)) was 0.035 and 0.034 and 0.0286; in test [3] (compound concentration 100, 1/KCl 0.05 (units not given)), 0.0066 and 0.0063 and 0.0065; in test [3] (compound concentration 100, 1/KCl 0.1 (units not given)), 0.0087 and 0.0094 and 0.0098; in test [3] (compound concentration 100, 1/KCl 0.125 (units not given)), 0.0086 and 0.0083 and 0.0082; in test [3] (compound concentration 100, 1/KCl 0.2 (units not given)) it was 0.011 and 0.0106 and 0.0113; in test [3] (compound concentration 100, 1/KCl 0.5 (units not given)), 0.0167 and 0.0156 and 0.0168. Also, the “reciprocal K+-stimulated ATPase activity” value is 0.0412 and 0.0415 and 0.043 in test [3] (compound concentration 100, 1/KCl 1 (units not given)); 0.056 and 0.0496 and 0.0604 in test [3] (compound concentration 100, 1/KCl 2 (units not given)); 0.0084 and 0.0076 and 0.008 in test [3] (compound concentration 400, 1/KCl 0.05 (units not given)); 0.0109 and 0.0112 and 0.011 in test [3] (compound concentration 400, 1/KCl 0.1 (units not given)); 0.0123 and 0.011 and 0.0111 in test [3] (compound concentration 400, 1/KCl 0.125 (units not given)); 0.0153 and 0.0154 and 0.0157 in test [3] (compound concentration 400, 1/KCl 0.2 (units not given)). For the same compound, the “reciprocal K+-stimulated ATPase activity” value in test [3] (compound concentration 400, 1/KCl 0.5 (units not given)) was 0.0261 and 0.0253 and 0.0282; in test [3] (compound concentration 400, 1/KCl 1 (units not given)), 0.069 and 0.0649 and 0.0653; in test [3] (compound concentration 400, 1/KCl 2 (units not given)), 0.097 and 0.0973 and 0.106. Besides, the inhibition mode entry in test [3] (double reciprocal plot, versus K+) is listed as “purely competitive with K^+”.
Consider `Cc1nc2c(OCc3ccccc3)cccn2c1CC#N` [SCH28080], for which the results for the Ki in test [4] (pH 6.11) and in test [4] (pH 7.35) were 20 nM and 66 nM, respectively.
